Results reported in patent US12440466B2, “Fatty acid derivatives for treating non-alcoholic steatohepatitis” (BASF AS, priority 2017, dated 2025).
Marks after values point to notes of the source that are not given here.

What was measured:
STAM (model) mice = experiment: NAFLD activity score (NAS) in streptozotocin/high-fat diet NASH model (STAM model); format: in vivo, mouse; details: 6 weeks treatment, Compound A 37 mg/kg/day oral gavage, telmisartan positive control
Excerpt: In Biological Example 8, pathogen-free 15-day-pregnant C57BL/6 mice were obtained from Charles River Laboratories in Japan Inc. (Kanagawa, Japan). NASH was established in male mice by a single subcutaneous injection of streptozotocin (STZ) (Sigma, USA) after birth and feeding with a high fat diet (HFD; CLEA) Japan, Japan) ad libitum after 4 weeks of age (day 28±2). Mice were randomised into 3 groups of 8 mice at 6 weeks of age the day before the start of treatment: vehicle (saline), Compound A and telmisartan (positive control). Treatment with Compound A at a dose of 37 mg/kg bw per day via oral gavage in conjunction with a high-fat diet was given for 6 weeks before sacrifice. NAFLD activity score (NAS) was calculated according to standardised criteria and fibrosis area was assessed via Sirius Red staining.

CETP = CETP expression in APOE*3.CETP mice; format: in vivo, mouse; details: Compound A
CDAA/high-fat fed mice = experiment: Hepatic collagen fiber number, thickness and length by nonlinear multiphoton optical imaging, CDAA/high-fat diet mouse model; format: in vivo; details: Compound A 56 mg/kg bw per day orally
Description: (§1) Mice were fed either choline-sufficient (CS) or choline deficient high-fat diets (31% total calories; “CDAA/high-fat”). The NASH inducing diet was instigated 6 weeks prior to the commencement of treatment in order to design the study as a treatment/reversal set-up rather than prophylaxis.
In Biological Examples 6 and 7, mice were fed either CS or CDAA/high-fat diets as described above. […] The effect on hepatic collagen fiber number, thickness, and length was determined via nonlinear multiphoton optical imaging system in isolated liver samples from vehicle control (n=8), Compound A (n=9) and GLP-1R (n=8) fed groups.

ob/ob AMLN mice = experiment: Oral glucose tolerance test (OGTT) and glycemic control in ob/ob AMLN mice; format: in vivo, mouse; details: after 3 weeks, Compound A 112 mg/kg, pioglitazone 30 mg/kg
Description: Obese diet-induced B6.V-Lepob/Jrj mice (ob/ob) are consistently fibrosis (liver) prone when cholesterol (2%), 40% fat (containing 18% trans-fatty acids) and 20% fructose are added to a high-caloric diet (i.e., AMLN high-fat diet). ob/ob mice on AMLN diet (termed ‘ob/ob AMLN mice’) develop steatohepatitis and fibrosis within a shorter timeframe ([…]) compared with wild-type C57BL/6 mice (AMLN mice) fed the same diet. ob/ob AMLN mice provide an obese diet-induced model of NASH that also allows the study of effects on glycemic control. Development of NASH in the ob/ob AMLN model is confirmed by biopsy.
In Biological Examples 10-12, 15, and 19, studies were performed in male ob/ob mice (5 weeks old) fed an AMLN high-fat diet for 15 weeks, then randomized into 3 groups (n=10 per group) to receive either 112 mg/kg bw per day of Compound A via diet, 30 mg/kg bw per day pioglitazone via diet or no treatment (vehicle) for a further 4 weeks. An oral glucose tolerance test (OGTT) was performed at week 3. Hepatic fibrosis was assessed via measurements of hepatic fibrogenic/fibrolytic gene expression by RNA sequencing at 4 weeks.
After 3 weeks of administration of Compound A (112 mg/kg), pioglitazone, or vehicle control, an oral glucose tolerance test (OGTT) was performed in ob/ob AMLN mice.

Col1a1 mRNA = experiment: Hepatic Col1a1 mRNA expression by qPCR, CDAA/high-fat diet mouse model; format: in vivo; details: CDAA/high-fat fed mice
Excerpt: as §1
After 6 weeks of either the CS- or CDAA diet, mice were orally administered Compound A or comparison Compound N, both at 2 doses, 0.15 mmol/kg bw/day (low-dose, LD) and 0.3 mmol/kg bw per day (high-dose, HD). The test substances were administered orally as admix to the high-fat diet. Hepatic fibrosis was assessed by both measurement of hydroxyproline (HYP) content and Sirius Red (SR) morphometry. Fibrosis, inflammation and metabolism related transcripts levels were measured by quantitative real-time polymerase chain reaction (qPCR).
(§2) Studies were performed in male C56BL/6J mice (9 weeks old). Mice were divided into 6 experimental groups (n=9 per group) containing either CS or CDAA/high-fat diets, as described above. The NASH inducing CDAA/high fat diet was instigated 6 weeks prior to the commencement of treatment in order to assess treatment/reversal rather than prophylaxis. […] Compound A was administered orally as admix to the high-fat diet whilst GLP-1 agonist was delivered via intraperitoneal injection (i.p.). Fibrosis, inflammation and metabolism related transcripts levels were measured by quantitative real-time polymerase chain reaction (qPCR) in isolated liver tissue.

APOE*3Leiden.CETP mice = experiment: Hepatocellular hypertrophy grading in APOE*3Leiden.CETP double transgenic mice; format: in vivo, mouse; details: APOE*3Leiden.CETP mice on high fat/cholesterol diet; 0.3 mmol/kg bw per day by gavage; 20 weeks
Excerpt: The APOE*3Leiden.CETP double transgenic mouse expresses a variant of the human apolipoprotein E3 (APOE3), the APOE*3Leiden, in addition to the human apolipoprotein C1 (APOC1) and CETP. […] By increasing the cholesterol content of the diet in this model, all the characteristics of human NASH develop.
In one study (using 1% cholesterol w/w), after a 3 weeks run-in period low-responder mice (20% of total) were removed from the study and the remaining mice were sub-divided into 4 groups of 12 mice each (+5 in the control group), matched for plasma cholesterol, triglycerides, blood glucose, body weight and age (t=0) and treatment was started. The mice received a daily gavage between 07hr00 and 10hr00 with either Compound A at 0.3 mmol/kg bw per day, the comparison compound Compound N (0.3 mmol/kg bw per day), rosiglitazone (13 mg/kg bw per day) or control (corn oil). After 20 weeks of treatment mice were sacrificed by CO2 asphyxiation, the liver was collected and the level of hepatocellular hypertrophy was graded.

TIMP-1a mRNA = experiment: Hepatic TIMP-1a mRNA expression by qPCR, CDAA/high-fat diet mouse model; format: in vivo; details: CDAA/high-fat fed mice; Compound A 0.3 mmol/kg bw/day oral; GLP-1a 0.4 mg/kg once weekly i.p.; alone or combined
Description: as §1, §2

## CC/C=C\C/C=C\C/C=C\C/C=C\C/C=C\CCCCOC(CC)C(=O)O (centres unmarked) [Compound A, 2-((5Z,8Z,11Z,14Z,17Z)-icosa-5,8,11,14,17-pentaenyloxy)butanoic acid]
STAM (model) mice
  Hepatocellular ballooning: 1
  Lobular inflammation: 0.88
  NAS score (mean ± SD): 2.3 ± 1.5
  Steatosis: 0.12
CETP
  CETP expression: significantly reduce CETP expression
CDAA/high-fat fed mice
  collagen fiber length: slight increases
  collagen fiber thickness: slight increases
  short (<8.5 μm) and thin (<3.5 μm) collagen fibers: almost complete disappearance
CDAA/high-fat fed mice; p=0.01
  reduction of collagen fiber numbers: 51%
ob/ob AMLN mice
  fasting plasma glucose levels: significant reductions
  glucose excursion after glucose load (AUC 0-240 mins), OGTT: significantly reduced
Col1a1 mRNA; Compound A 0.3 mmol/kg bw/day oral, GLP-1a 0.4 mg/kg once weekly i.p., alone or combined
  Col1a1 (relative mRNA expression): 6.2***
Col1a1 mRNA; HD 0.3 mmol/kg bw per day
  Col1a1 (relative mRNA expression): 6***
Col1a1 mRNA; LD 0.15 mmol/kg bw/day
  Col1a1 (relative mRNA expression): 10***
APOE*3Leiden.CETP mice
  Decrease in hypertrophy vs. control (%): 83* %
  Hepatocellular hypertrophy: 8.9 ± 5.9
TIMP-1a mRNA
  TIMP-1a (relative mRNA expression): 2***
